Test results reported in ChEMBL document CHEMBL3588817, “Discovery of 4,5,6,7-Tetrahydrobenzo[1,2-d]thiazoles as Novel DNA Gyrase Inhibitors Targeting the ATP-Binding Site” (J Med Chem, 2015).
Converted amounts (≈) assume the structure as drawn.

How the values were obtained:
Escherichia coli [1] = experiment: Antibacterial activity against wild type Escherichia coli ATCC 25922 assessed as inhibition of microbial growth at 50 uM by broth microdilution method; type: functional; settings: read-out: GI
Pseudomonas aeruginosa [2] = experiment: Antibacterial activity against Pseudomonas aeruginosa ATCC 27853 assessed as inhibition of microbial growth at 50 uM by broth microdilution method; type: functional; settings: read-out: GI
Escherichia coli [3] = experiment: Antibacterial activity against wild type Escherichia coli ATCC 25922 assessed as inhibition of microbial growth by broth microdilution method; type: functional
Staphylococcus aureus [4] = experiment: Antibacterial activity against Staphylococcus aureus 25923 assessed as inhibition of microbial growth by broth microdilution method; type: functional
Staphylococcus aureus [5] = experiment: Antibacterial activity against Staphylococcus aureus 25923 assessed as inhibition of microbial growth at 50 uM by broth microdilution method; type: functional; settings: read-out: GI
Escherichia coli [6] = experiment: Inhibition of Escherichia coli DNA topoisomerase 4 assessed as residual enzyme activity at 100 uM using relaxed pNO1 plasmid and biotinylated oligonucelotide incubated for 30 mins by fluorescence based DNA relaxation assay
DNA gyrase [7] = target: T1, DNA gyrase (Escherichia coli, UniProt P0AES4+P0AES6); experiment: Inhibition of Escherichia coli DNA gyrase using relaxed pNO1 plasmid and biotinylated oligonucelotide incubated for 30 mins by fluorescence based DNA super-coiling assay; type: protein-complex assay
DNA gyrase [8] = target: DNA gyrase (Staphylococcus aureus, UniProt P0A0K8+P20831); experiment: Inhibition of Staphylococcus aureus DNA gyrase using relaxed pNO1 plasmid and biotinylated oligonucelotide incubated for 30 mins by fluorescence based DNA super-coiling assay; type: protein-complex assay
Pseudomonas aeruginosa [9] = experiment: Antibacterial activity against Pseudomonas aeruginosa ATCC 27853 assessed as inhibition of microbial growth by broth microdilution method; type: functional
[10] = target: Topoisomerase IV (Staphylococcus aureus) (UniProt P0C1U9+P0C1S7); experiment: Inhibition of Staphylococcus aureus DNA topoisomerase 4 assessed as residual enzyme activity at 100 uM using relaxed pNO1 plasmid and biotinylated oligonucelotide incubated for 30 mins by fluorescence based DNA relaxation assay; type: protein-complex assay
Enterococcus faecalis [11] = experiment: Antibacterial activity against Enterococcus faecalis ATCC 29212 assessed as inhibition of microbial growth by broth microdilution method; type: functional
Enterococcus faecalis [12] = experiment: Antibacterial activity against Enterococcus faecalis ATCC 29212 assessed as inhibition of microbial growth at 50 uM by broth microdilution method; type: functional; settings: read-out: GI
Escherichia coli [13] = experiment: Antibacterial activity against Escherichia coli imp4213::Tn10 by broth microdilution method; type: functional
Topoisomerase IV = Topoisomerase IV (Staphylococcus aureus, UniProt P0C1S7+P0C1U9); experiment: Inhibition of Staphylococcus aureus DNA topoisomerase 4 using relaxed pNO1 plasmid and biotinylated oligonucelotide incubated for 30 mins by fluorescence based DNA relaxation assay; type: protein-complex assay
Escherichia coli [14] = experiment: Antibacterial activity against wild type Escherichia coli ATCC 25922 by broth microdilution method; type: functional
Escherichia coli [15] = experiment: Antibacterial activity against efflux deficient Escherichia coli tolC::Tn10 lacking functional tolC gene by broth microdilution method
DNA gyrase [16] = target: T1, DNA gyrase; experiment: Binding affinity to Escherichia coli DNA gyrase subunit B N-terminal 24 kDa domain by SPR assay; type: protein-complex assay
[17] = Inhibition of Escherichia coli DNA Gyrase ATPase activity assessed as reduction in conversion of NADH to NAD+ using linear pBR322 substrate
[18] = target: DNA gyrase (Staphylococcus aureus) (UniProt P0A0K8+P20831); experiment: Inhibition of Staphylococcus aureus DNA gyrase assessed as residual enzyme activity at 100 uM using relaxed pNO1 plasmid and biotinylated oligonucelotide incubated for 30 mins by fluorescence based DNA super-coiling assay; type: protein-complex assay
[19] = Inhibition of Escherichia coli DNA topoisomerase 4 using relaxed pNO1 plasmid and biotinylated oligonucelotide incubated for 30 mins by fluorescence based DNA relaxation assay

Row | MIC (Escherichia coli [3]) [µM] | MIC (Staphylococcus aureus [4]) [µM] | Activity (Escherichia coli [6]) [%] | IC50 (DNA gyrase [7]) [µM] | MIC (Pseudomonas aeruginosa [9]) [µM] | Activity [10] [%] | MIC (Enterococcus faecalis [11]) [µM] | MIC (Escherichia coli [13]) [µg/mL] | MIC (Escherichia coli [14]) [µg/mL] | MIC (Escherichia coli [15]) [µg/mL] | Kd (DNA gyrase [16]) [µM] | IC50 [17] [µM] | Activity [18] [%] | Structure (SMILES) | inhibition of growth at 50 µM (Escherichia coli [1]) [%] | inhibition of growth at 50 µM (Pseudomonas aeruginosa [2]) [%] | inhibition of growth at 50 µM (Staphylococcus aureus [5]) [%] | IC50 (DNA gyrase [8]) [µM] | inhibition of growth at 50 µM (Enterococcus faecalis [12]) [%] | IC50 (Topoisomerase IV) [µM] | IC50 [19] [µM]
1 | > 125 | > 125 | 98 | 0.15 | > 125 | 101 | > 125 |  |  |  |  |  |  | CC(=O)Nc1nc2c(s1)C[C@@H](NC(=O)c1cc(Br)c(Br)[nH]1)CC2 | < 50 | < 50 | < 50 | 26 | < 50 |  | 
2 | > 125 | > 125 | 98 | 0.13 | > 125 | 102 | > 125 | > 256 | > 256 | > 256 | 0.049 | 0.66 | 87 | O=C(O)CC(=O)Nc1nc2c(s1)C[C@@H](NC(=O)c1cc(Cl)c(Cl)[nH]1)CC2 | < 50 | < 50 | < 50 |  | < 50 |  | 
3 | > 125 | > 125 | 101 | 12 | > 125 | 102 | > 125 | 64 (≈ 152 µM) | > 256 | 64 (≈ 152 µM) | 3 | 25 | 90 | Nc1nc2c(s1)C[C@@H](NC(=O)c1cc(Br)c(Br)[nH]1)CC2 | < 50 | < 50 | < 50 |  | < 50 |  | 
4 | > 125 | > 125 | 97 | 0.4 | > 125 | 101 | > 125 | 32 (≈ 74.2 µM) | > 256 | 32 (≈ 74.2 µM) | 0.05 |  | 63 | COC(=O)CC(=O)Nc1nc2c(s1)C[C@@H](NC(=O)c1cc(Cl)c(Cl)[nH]1)CC2 | < 50 | < 50 | < 50 |  | < 50 |  | 
5 | > 125 | > 125 | 97 | 0.093 | > 125 | 99 | > 125 | 64 (≈ 120 µM) | > 256 | 32 (≈ 59.9 µM) | 0.15 |  | 113 | COC(=O)CCC(=O)Nc1nc2c(s1)C[C@@H](NC(=O)c1cc(Br)c(Br)[nH]1)CC2 | < 50 | < 50 | < 50 |  | < 50 |  | 
6 | > 125 | > 125 | 96 | 0.5 | > 125 | 102 | > 125 | > 256 | > 256 | > 256 |  |  | 108 | O=C(O)CC(=O)Nc1nc2c(s1)C[C@H](NC(=O)c1cc(Br)c(Br)[nH]1)CC2 | < 50 | < 50 | < 50 |  | < 50 |  | 
7 | > 125 | > 125 | 72 | 0.3 | > 125 | 97 | > 125 | > 256 | > 256 | > 256 |  |  |  | O=C(O)CCC(=O)Nc1nc2c(s1)C[C@@H](NC(=O)c1cc(Cl)c(Cl)[nH]1)CC2 | < 50 | < 50 | < 50 | 10 | < 50 |  | 
8 | > 125 | > 125 | 96 | 41 | > 125 | 92 | > 125 | 64 (≈ 152 µM) | > 256 | 64 (≈ 152 µM) |  |  | 118 | Nc1nc2c(s1)C[C@H](NC(=O)c1cc(Br)c(Br)[nH]1)CC2 | < 50 | < 50 | < 50 |  | < 50 |  | 
9 | > 125 | > 125 |  | 0.096 | > 125 | 74 | > 125 | 32 (≈ 61.5 µM) | > 256 | 16 (≈ 30.8 µM) | 0.072 |  |  | COC(=O)CC(=O)Nc1nc2c(s1)C[C@@H](NC(=O)c1cc(Br)c(Br)[nH]1)CC2 | < 50 | < 50 | < 50 | 110 | < 50 |  | 86

The remaining lines, values behind:

Row | Structure (SMILES) | MIC (Escherichia coli [3]) [µM] | MIC (Staphylococcus aureus [4]) [µM] | Activity (Escherichia coli [6]) [%] | IC50 (DNA gyrase [7]) [µM] | MIC (Pseudomonas aeruginosa [9]) [µM] | Activity [10] [%] | MIC (Enterococcus faecalis [11]) [µM] | MIC (Escherichia coli [13]) [µg/mL] | MIC (Escherichia coli [14]) [µg/mL] | MIC (Escherichia coli [15]) [µg/mL] | Kd (DNA gyrase [16]) [µM] | IC50 [17] [µM] | Activity [18] [%] | inhibition of growth at 50 µM (Escherichia coli [1]) [%] | inhibition of growth at 50 µM (Pseudomonas aeruginosa [2]) [%] | inhibition of growth at 50 µM (Staphylococcus aureus [5]) [%] | IC50 (DNA gyrase [8]) [µM] | inhibition of growth at 50 µM (Enterococcus faecalis [12]) [%] | IC50 (Topoisomerase IV) [µM] | IC50 [19] [µM]
10 | O=C(O)C(=O)Nc1nc2c(s1)C[C@@H](NC(=O)c1cc(Cl)c(Cl)[nH]1)CC2 | > 125 | > 125 | 82 | 0.59 | > 125 |  | > 125 | > 256 | > 256 | > 256 |  |  |  | < 50 | < 50 | < 50 | 300 | < 50 | 170 | 
11 | CCOC(=O)C(=O)Nc1nc2c(s1)C[C@@H](NC(=O)c1cc(Br)c(Br)[nH]1)CC2 | > 125 | > 125 | 74 | 0.1 | > 125 |  | > 125 | > 256 | > 256 | 128 (≈ 246 µM) |  | 0.57 |  | < 50 | < 50 | < 50 | 80 | < 50 | 180 | 
12 | CCOC(=O)C(=O)Nc1nc2c(s1)C[C@@H](NC(=O)c1cc(Cl)c(Cl)[nH]1)CC2 | > 125 | > 125 |  | 0.4 | > 125 |  | > 125 | > 256 | > 256 | 256 (≈ 594 µM) |  |  |  | < 50 | < 50 | < 50 | 320 | < 50 | 290 | 300
13 | O=C(O)CC(=O)Nc1nc2c(s1)C[C@@H](NC(=O)c1cc(Br)c(Br)[nH]1)CC2 | > 125 | > 125 |  | 0.069 | > 125 |  | > 125 | > 256 | > 256 | > 256 | 0.042 |  |  | < 50 | < 50 | < 50 | 86 | < 50 | 76 | 74
14 | O=C(O)CC(=O)Nc1nc2c(s1)C[C@@H](NC(=O)c1cc3ccccc3[nH]1)CC2 | > 125 | > 125 | 96 | 7.6 | > 125 | 103 | > 125 | > 256 | > 256 | > 256 |  | 22 | 117 | < 50 | < 50 | < 50 |  | < 50 |  | 
15 | O=C(O)C(=O)Nc1nc2c(s1)C[C@@H](NC(=O)c1cc(Br)c(Br)[nH]1)CC2 | > 125 | > 125 |  |  | > 125 |  | > 125 | > 256 | > 256 | 256 (≈ 520 µM) |  | 0.48 |  | < 50 | < 50 | < 50 | 120 | < 50 | 78 | 200
16 | O=C(O)CCC(=O)Nc1nc2c(s1)C[C@@H](NC(=O)c1cc(Br)c(Br)[nH]1)CC2 | > 125 | > 125 | 90 | 0.049 | > 125 |  | > 125 | > 256 | > 256 | 256 (≈ 492 µM) | 0.01 |  |  | < 50 | < 50 | < 50 | 270 | < 50 | 110 | 
